What was measured:
Lasius niger = test: Honey bait placed near an active anthill, population destruction; type: in vivo; settings: 10 g of a 0.05% dispersion in honey
Excerpt: A watch glass containing 10 g of a 0.05% dispersion of compound A in honey is placed 20 cm from the entrance to an active anthill. The ants are of the species Lasius niger, for which the fraction of workers whose function is to collect food is in the region of 10% of the total population. The total population is estimated by a count carried out on an untreated anthill, referred to as the control, containing 10,000 individuals.
During the first 2 days, it is observed that the ants head in a column from the anthill to the watch glass, stop to take up the dispersion and then return to the anthill.
An update on the latter is then obtained by excavation.

[1] = test system: Blatella Germanica cockroaches; test: Bait pellet test on cockroaches in boxes, with later introduction of healthy cockroaches; type: in vivo; settings: 2.7 g bait pellet with 1.35 mg active, bait removed after 8 hours and 15 new healthy cockroaches added
Protocol: Tests are carried out on Blatella Germanica cockroaches in boxes 36×24×14 cm in size. These boxes comprise a source of water, a shelter consisting of piled pieces of cardboard, and additional food consisting of biscuit pieces.
15 cockroaches are introduced into the box without bait.
After 24 hours, a 2.7 g pellet of bait with 1.35 mg of product of formula (I) is introduced into the box.
After a further 8 hours, the bait and the additional food are removed and 15 new healthy cockroaches are introduced.

Structure (SMILES): N#Cc1nn(-c2c(Cl)cc(C(F)(F)F)cc2Cl)c(N)c1[S+]([O-])C(F)(F)F (centres unmarked) [compound A, 5-amino-3-cyano-I-[2,6-dichloro4-(trifluoromethyl)phenyl]-4[(trifluoromethyl)sulfinyl]-IH-pyrazole]
- destruction rate (Lasius niger; 20 cm from anthill entrance, excavation after 15 days, total population about 10,000 individuals): greater than 99%
- surface activity around the anthill (Lasius niger; after 15 days): no further surface activity
- destruction of larvae in the anthill (Lasius niger; excavation after 15 days): all the larvae have been destroyed
- cockroaches dead ([1]; 64 hours after introduction of the bait): 98.6%
- cockroaches dead ([1]; after 88 hours): 100%

From patent publication US20030228343A1, “Method for controlling a population of social insects using 1-arylpyrazoles or 1-heteroarylpyrazoles” (priority 1995, published 2003)
